Laboratory results reported in paper PMC5113031, “Variant Exported Blood-Stage Proteins Encoded by Plasmodium Multigene Families Are Expressed in Liver Stages Where They Are Exported into the Parasitophorous Vacuole” (PLoS Pathogens, 2016).

Biological target: T1, P. falciparum Fam-A (PF3D7_1463500) (Plasmodium falciparum, UniProt Q8IKK1)
T1 construct: region encoding START domain, codon-optimised, cloned in pMALc2x, N-terminal His6, E. coli BL21(DE3), Ni and SEC, monomeric
Assay: […]-PC transfer from donor to acceptor vesicles
Type: biochemical
Conditions: pH 7.4, 37 °C, 30 min, 25 μg/ml protein, BSA 1 mg/ml; labelled compound (14C)

T1 sequence (Q8IKK1 entry or part of it): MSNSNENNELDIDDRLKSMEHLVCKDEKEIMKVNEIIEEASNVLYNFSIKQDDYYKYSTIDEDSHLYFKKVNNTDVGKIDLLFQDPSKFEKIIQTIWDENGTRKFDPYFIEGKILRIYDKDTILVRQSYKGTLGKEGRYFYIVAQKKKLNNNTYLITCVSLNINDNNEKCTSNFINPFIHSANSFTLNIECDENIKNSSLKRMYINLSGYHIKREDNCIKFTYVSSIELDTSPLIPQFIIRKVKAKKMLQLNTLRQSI

## CCCCCCCCCCCCCCCC(=O)OC[C@H](COP(=O)([O-])OCC[N+](C)(C)C)OC(=O)CCCCCCCCCCCCCCC [L-α-DiPalmitoyl-Phosphatidylcholine]
  PC transfer activity: P. falciparum Fam-A reproducibly showed a lower, but detectable, level of PC transfer activity
